From US20250213587A1, “ITK INHIBITORS FOR INCREASING TH1 CELL ACTIVITY” (Corvus Pharmaceuticals, Inc., priority 2022, published 2025)
“Also recorded” adds a separate entry of the source.

Columns and labels:
[1] = target: T1, ITK (Homo sapiens, UniProt Q08881); test: Jump dilution assay; type: binding; parameters: purchased Invitrogen
T1 sequence (Q08881 1-620): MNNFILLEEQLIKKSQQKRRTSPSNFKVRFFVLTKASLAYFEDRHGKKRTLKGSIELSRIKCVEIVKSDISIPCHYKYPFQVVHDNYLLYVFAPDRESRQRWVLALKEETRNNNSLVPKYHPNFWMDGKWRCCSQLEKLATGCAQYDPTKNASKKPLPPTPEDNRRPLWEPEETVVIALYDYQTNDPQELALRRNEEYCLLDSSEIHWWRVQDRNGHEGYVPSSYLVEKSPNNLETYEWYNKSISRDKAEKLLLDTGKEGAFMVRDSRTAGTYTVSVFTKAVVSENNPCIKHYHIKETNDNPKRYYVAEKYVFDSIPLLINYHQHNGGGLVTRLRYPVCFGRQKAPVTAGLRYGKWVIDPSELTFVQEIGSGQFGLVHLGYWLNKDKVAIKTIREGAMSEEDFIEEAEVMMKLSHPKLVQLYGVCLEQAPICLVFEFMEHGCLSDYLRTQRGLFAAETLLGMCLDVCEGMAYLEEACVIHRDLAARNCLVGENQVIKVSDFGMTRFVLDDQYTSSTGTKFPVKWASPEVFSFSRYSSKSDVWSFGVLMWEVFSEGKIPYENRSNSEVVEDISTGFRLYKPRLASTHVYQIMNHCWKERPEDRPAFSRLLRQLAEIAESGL
Experimental: The assay format is similar to the Competitive Tracer-binding Assay and relies on the reversible binding of tracer 236 to recombinant tagged human ITK. […] The mixture was then filtered through a desalting column (Thermo Scientific, Zeba Spin Desalting Column, 40K MWCO) to remove unbound inhibitor. The assay was initiated immediately after the desalting step by diluting the eluate containing the inhibited kinase complex 50-fold into a solution of anti-tag antibody (2 nM final) and excess tracer 236 (40 nM final). Dissociation of inhibitor and binding of tracer was monitored immediately after assay initiation using an EnVision plate reader (excitation 340 nm, dual emission at 665 nm and 615 nm). Reagents including GST-tagged recombinant human ITK, Kinase tracer 236, Lanthascreen Eu-Anti-GST antibody and kinase buffer A were purchased from ThermoFisher Scientific/Invitrogen. Each data point represents the mean of technical triplicates. Equation 3 was fitted to the BMS-509744 data to obtain the rate constant using GraphPad Prism from which the half-life was calculated.

[2] = system: other TEC kinases; conditions: literature; cited from earlier work

| half-life of inhibitor-ITK complex ([1]; dilution into excess tracer 236) [min] | Compound | reversibility of ITK inhibition on dilution ([1]; dilution into competitive probe) | inhibition of other TEC kinases [2] |
| --- | --- | --- | --- |
| 2.6 | COc1cc(C)c(Sc2cnc(NC(=O)c3ccc(CNC(C)C(C)(C)C)cc3)s2)cc1C(=O)N1CCN(C(C)=O)CC1 (stereo not drawn) [BMS-509744, reference compound] | reversible; also recorded: rapid dissociation |  |
|  | C=CC(=O)N1CCC[C@@H]1Cn1c(NC(=O)c2ccc(C(F)F)s2)nc2cc(CN[C@@H](C)C(C)(C)C)ccc21 [PRN694] |  | significant inhibition |
